Results: publication PMC11747885, “Potent inhibitors of the human RNA ligase Rlig1 highlights its role in RNA integrity maintenance under oxidative cellular stress” (Chemical Science, 2025)
“And” between values parts separate entries of the source, which are not always exact repeats. Equal values may be shown once. Read-outs that look alike come from different tables or passages of the source.

Assays:
Aurora B = test system: Aurora B; parameters: method as in MedChemExpress; details: ref MedChemExpress; cited from earlier work
KDR = test system: KDR; parameters: method as in MedChemExpress; details: ref MedChemExpress; cited from earlier work
FLT-3 = test system: FLT-3; parameters: method as in MedChemExpress; details: ref MedChemExpress; cited from earlier work
Rlig1-AMP = biological target: T1, Rlig1-AMP (Homo sapiens, UniProt Q8N999); assay: FRET-based high-throughput screening of inhibitors for Rlig1-AMP; type: biochemical; details: HTS hits; for Raw data [w Enyzm]: with enzyme; for Raw data [w/o Enzym]: without enzyme
T1 construct: made in house; host or cells: E. coli BL21 (DE3), pET15b-Rlig1
T1 sequence (Q8N999 whole entry): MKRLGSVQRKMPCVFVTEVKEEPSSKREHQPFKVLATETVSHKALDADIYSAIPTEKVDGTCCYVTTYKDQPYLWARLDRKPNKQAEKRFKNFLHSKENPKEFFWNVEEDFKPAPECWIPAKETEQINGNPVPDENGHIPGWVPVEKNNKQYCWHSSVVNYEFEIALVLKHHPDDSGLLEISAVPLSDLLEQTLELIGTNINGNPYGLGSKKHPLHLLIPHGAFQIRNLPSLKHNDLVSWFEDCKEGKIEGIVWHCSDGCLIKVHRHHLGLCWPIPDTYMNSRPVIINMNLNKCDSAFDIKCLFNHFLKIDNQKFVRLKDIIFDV

Aurora A = test system: Aurora A; parameters: method as in MedChemExpress; details: ref MedChemExpress; cited from earlier work
[1] = test system: other members of the PLK family; parameters: method as in MedChemExpress; details: ref MedChemExpress; cited from earlier work
ETA receptors = biological target: ETA receptors; parameters: method as in MedChemExpress; details: binding to ETA receptors in SK-N-MC cells; ref MedChemExpress; cited from earlier work
ETB receptor = biological target: ETB receptor; parameters: method as in MedChemExpress; details: inhibition of ET-1 binding to human Girardi heart cells (ETB); ref MedChemExpress; cited from earlier work
rat brain PKC = test system: rat brain PKC; parameters: method as in MedChemExpress; details: ref MedChemExpress; cited from earlier work
PKC-γ = test system: PKC-γ; parameters: method as in MedChemExpress; details: ref MedChemExpress; cited from earlier work
PKC-ε = test system: PKC-ε; parameters: method as in MedChemExpress; details: ref MedChemExpress; cited from earlier work
PKC-α = test system: PKC-α; parameters: method as in MedChemExpress; details: ref MedChemExpress; cited from earlier work
PKC-βI = test system: PKC-βI; parameters: method as in MedChemExpress; details: ref MedChemExpress; cited from earlier work
PKC-βII = test system: PKC-βII; parameters: method as in MedChemExpress; details: ref MedChemExpress; cited from earlier work
[2] = biological target: human DNA topoisomerase I; parameters: method as in MedChemExpress; details: ref MedChemExpress; cited from earlier work
[3] = DMSO; ref MedChemExpress; cited from earlier work
wild-type h5-HT1D = biological target: wild-type h5-HT1D; parameters: method as in MedChemExpress; details: ref MedChemExpress; cited from earlier work
wild-type h5-HT1B = biological target: wild-type h5-HT1B; parameters: method as in MedChemExpress; details: ref MedChemExpress; cited from earlier work
GSK3β = test system: GSK3β; parameters: method as in MedChemExpress; details: ref MedChemExpress; cited from earlier work
CXXC5-DVL = test system: CXXC5-DVL; parameters: method as in MedChemExpress; details: ref MedChemExpress; cited from earlier work
[4] = DMSO; ref MedChemExpress; cited from earlier work; remark: listed apart in the source
MAGL = test system: MAGL; parameters: method as in MedChemExpress; details: ref MedChemExpress; cited from earlier work
[5] = test system: human p53 and CREB binding protein association; parameters: method as in MedChemExpress; details: at 50 μM; ref MedChemExpress; cited from earlier work
CDK7 = biological target: CDK7; parameters: method as in MedChemExpress; details: ref MedChemExpress; cited from earlier work
L-type currents = test system: L-type currents; parameters: method as in MedChemExpress; details: ref MedChemExpress; cited from earlier work
T-type Ca2+ channels = test system: T-type Ca2+ channels; parameters: method as in MedChemExpress; details: T-type currents; ref MedChemExpress; cited from earlier work
RNA synthesis = test system: RNA synthesis; parameters: method as in MedChemExpress; details: ref MedChemExpress; cited from earlier work
DNA synthesis = test system: DNA synthesis; parameters: method as in MedChemExpress; details: ref MedChemExpress; cited from earlier work
Syk = test system: Syk; parameters: method as in MedChemExpress; details: ref MedChemExpress; cited from earlier work
PI3Kα = test system: PI3Kα; parameters: method as in MedChemExpress; details: ref MedChemExpress; cited from earlier work
HIV-1(74V) = test system: HIV-1(74V); parameters: method as in MedChemExpress; details: ref MedChemExpress; cited from earlier work
HIV-1KM018 = test system: HIV-1KM018; parameters: method as in MedChemExpress; details: ref MedChemExpress; cited from earlier work
HIV-1IIIB = test system: HIV-1IIIB; parameters: method as in MedChemExpress; details: ref MedChemExpress; cited from earlier work
SirT2 = test system: SirT2; parameters: method as in MedChemExpress; details: ref MedChemExpress; cited from earlier work
SirT5 = test system: SirT5; parameters: method as in MedChemExpress; details: ref MedChemExpress; cited from earlier work
DNA topoisomerase II = biological target: DNA topoisomerase II; parameters: method as in MedChemExpress; details: ref MedChemExpress; cited from earlier work
Hck = test system: Hck; parameters: method as in MedChemExpress; details: ref MedChemExpress; cited from earlier work
Fyn = test system: Fyn; parameters: method as in MedChemExpress; details: ref MedChemExpress; cited from earlier work
Lyn = test system: Lyn; parameters: method as in MedChemExpress; details: ref MedChemExpress; cited from earlier work
Src = test system: Src; parameters: method as in MedChemExpress; details: ref MedChemExpress; cited from earlier work
FGFR2 = test system: FGFR2; parameters: method as in MedChemExpress; details: ref MedChemExpress; cited from earlier work
VEGFR1 = test system: VEGFR1; parameters: method as in MedChemExpress; details: ref MedChemExpress; cited from earlier work
PDGFRβ = test system: PDGFRβ; parameters: method as in MedChemExpress; details: ref MedChemExpress; cited from earlier work
FGFR1 = test system: FGFR1; parameters: method as in MedChemExpress; details: ref MedChemExpress; cited from earlier work
Lck = test system: Lck; parameters: method as in MedChemExpress; details: ref MedChemExpress; cited from earlier work
VEGFR2 = test system: VEGFR2; parameters: method as in MedChemExpress; details: ref MedChemExpress; cited from earlier work
Fgr = test system: Fgr; parameters: method as in MedChemExpress; details: ref MedChemExpress; cited from earlier work
Yes = test system: Yes; parameters: method as in MedChemExpress; details: ref MedChemExpress; cited from earlier work
[6] = difference of raw data without and with enzyme
[7] = difference of raw data w/o and w enzyme

Structure (SMILES) | 1-D Distance.npi (Rlig1-AMP; MedChemExpress library) | 1-D Distance (Rlig1-AMP; [6]) | Raw data [w Enyzm] (Rlig1-AMP) | Raw data [w/o Enzym] (Rlig1-AMP) | solubility [4] | other results
COc1ccc2[nH]c(O)c(C=c3ccc4c(c3)N=NC=4/C=C/c3ccc(N4CCN(C)CC4)nc3)c2c1.Cl.Cl [(1E)-CFI-400437 (dihydrochloride)] | 102.026 | 187 | 4069 | 3882 |  | IC50 (Aurora B): 210 nM; IC50 (KDR): 480 nM; IC50 (FLT-3): 180 nM; IC50 (Aurora A): 370 nM; IC50 [1]: > 10000 nM
CCCC[C@@H](NC(=O)[C@@H](Cc1cn(C(=O)OC)c2ccccc12)NC(=O)[C@H](CC(C)(C)C)NC(=O)N1[C@H](C)CCC[C@@H]1C)C(=O)[O-].[Na+] [BQ-788] | 75.2571 | 1704 | 8619 | 10323 |  | IC50 (ETA receptors): 1300 nM; IC50 (ETB receptor): 1.2 nM
CC(=O)O.Cn1cc(C2=C(c3cn(CCCN)c4ccccc34)C(=O)NC2=O)c2ccccc21 [Bisindolylmaleimide VIII (acetate)] | 70.0569 | 1909 | 2831 | 4740 |  | IC50 (rat brain PKC): 158 nM; IC50 (PKC-γ): 213 nM; IC50 (PKC-ε): 175 nM; IC50 (PKC-α): 53 nM; IC50 (PKC-βI): 195 nM; IC50 (PKC-βII): 163 nM
COc1cccc2c1C(=O)c1c(O)c3c(c(O)c1C2=O)C[C@@](O)(C(=O)CO)C[C@@H]3O[C@H]1C[C@H](N)[C@H](O)[C@H](C)O1.Cl [Doxorubicin (hydrochloride)] | 103.376 | 134 | 1247 |  |  | IC50 [2]: 800 nM
COc1ccc(NC(=O)c2ccc(-c3ccncc3)c(C)c2)cc1N1CCN(C)CC1 [GR 125743] |  |  | 8833 | 10262 |  | solubility [3]: 100 mg/mL and 240.08 mM; pKi (wild-type h5-HT1D): 8.31; 1-D Distance (Rlig1-AMP; [7]): 1429; pKi (wild-type h5-HT1B): 8.85
CON=C1C(=C2C(=O)Nc3cc(Cl)c(Cl)cc32)Nc2ccccc21 [KY19382] | 101.229 | 138 | 6054 | 6192 | 5 mg/mL and 13.88 mM | IC50 (GSK3β): 10 nM; IC50 (CXXC5-DVL): 19 nM
CC(C)c1ccc(C(=O)C2CCN(C(=O)c3cc(O)ccc3F)CC2)cc1 [MAGL-IN-1] | 70.8371 | 1819 | 9200 | 11019 |  | IC50 (MAGL): 80 nM
CC(=O)n1c2c(c3ccccc31)CCCC2=O [MS7972] |  |  | 8943 | 10149 |  | 1-D Distance (Rlig1-AMP; [7]): 1206; 1-D Distance.npi (Rlig1-AMP; normalized value (npi)): 81.4632; block of BRD interaction [5]: MS7972 is a small molecule that blocks human p53 and CREB binding protein association. MS7972 can almost completely block this BRD interaction at 50 μM[1].
CN(C)C/C=C/C(=O)Nc1ccc(C(=O)N[C@@]2(C)CCC[C@@H](Nc3ncc(Cl)c(-c4c[nH]c5ccccc45)n3)C2)nc1 [Mevociclib] | 95.3899 | 561 | 5749 | 5188 |  | Ki (CDK7): 17.4 nM
COCC(=O)O[C@]1(CCN(C)CCCc2nc3ccccc3[nH]2)CCc2cc(F)ccc2[C@@H]1C(C)C.Cl.Cl [Mibefradil (dihydrochloride)] | 70.2795 | 1786 | 9508 | 11294 |  | IC50 (L-type currents): 18600 nM; IC50 (T-type Ca2+ channels): 2700 nM
CCc1c2c(nc3ccc(O)cc13)-c1cc3c(c(=O)n1C2)COC(=O)[C@]3(O)CC [SN-38] | 72.669 | 1812 | 9411 | 11223 | 50 mg/mL and 127.42 mM | IC50 (RNA synthesis): 1300 nM; IC50 (DNA synthesis): 77 nM
Cc1nn(-c2ccnc(Nc3ccc(-c4csc5c(=O)cc(N6CCOCC6)oc45)cc3)n2)cc1CN1CCC1 [SRX3207] | 89.3143 | 966 | 7329 | 6363 | 5 mg/mL and 9.00 mM | IC50 (Syk): 10.7 nM; IC50 (PI3Kα): 861 nM
O=C(O)[C@H]1O[C@@H](Oc2cc3oc(-c4ccc(O)cc4)cc(=O)c3c(O)c2O)[C@H](O)[C@@H](O)[C@@H]1O [Scutellarin] |  | 1804 | 9318 | 11122 | 100 mg/mL and 216.28 mM | EC50 (HIV-1(74V)): 253000 nM; EC50 (HIV-1KM018): 136000 nM; EC50 (HIV-1IIIB): 26000 nM
Cc1ccc(C(=O)Nc2ccc(S(=O)(=O)[O-])c3cc(S(=O)(=O)[O-])cc(S(=O)(=O)[O-])c23)cc1NC(=O)c1cccc(NC(=O)Nc2cccc(C(=O)Nc3cc(C(=O)Nc4ccc(S(=O)(=O)[O-])c5cc(S(=O)(=O)[O-])cc(S(=O)(=O)[O-])c45)ccc3C)c2)c1.[Na+].[Na+].[Na+].[Na+].[Na+].[Na+] [Suramin (sodium salt)] | 85.8095 | 1150 | 13348 | 14498 |  | IC50 (SirT2): 1150 nM; IC50 (SirT5): 22000 nM; IC50 (DNA topoisomerase II): 5000 nM
Cc1cc(-c2cc(O)ccc2Cl)cc2nnc(Nc3ccc(OCCN4CCCC4)cc3)nc12.Cl [TG 100572 (Hydrochloride)] | 103.738 | 38 | 3376 | 3338 | 25 mg/mL and 48.79 mM | IC50 (Hck): 6 nM; IC50 (Fyn): 0.5 nM; IC50 (Lyn): 0.4 nM; IC50 (Src): 1 nM; IC50 (FGFR2): 16 nM; IC50 (VEGFR1): 2 nM; IC50 (PDGFRβ): 13 nM; IC50 (FGFR1): 2 nM; IC50 (Lck): 0.1 nM; IC50 (VEGFR2): 7 nM; IC50 (Fgr): 5 nM; IC50 (Yes): 0.2 nM
